Laboratory results published in ChEMBL document CHEMBL1130603, “Studies on the C-terminal of hexapeptide inhibitors of the hepatitis C virus serine protease” (Bioorg Med Chem Lett, 1998).
Square brackets hold non-standard residues; d marks the D form. Peptide text beside a SMILES is read from it. * marks the point of attachment. Nle = CCCC[C@H](N)C(=O)O; Nva = CCC[C@H](N)C(=O)O; Abu = CC[C@H](N)C(=O)O; CF3 = FC(F)(F)*

How the values were obtained:
[1] = target: Cathepsin B (Homo sapiens, UniProt P07858); test: Compound was tested for inhibition of human liver Cathepsin B
[2] = target: T1, Neutrophil elastase (Homo sapiens, UniProt P08246); test: Compound was tested for inhibition of human leucocyte elastase (HLE)
T1 sequence (P08246 whole entry): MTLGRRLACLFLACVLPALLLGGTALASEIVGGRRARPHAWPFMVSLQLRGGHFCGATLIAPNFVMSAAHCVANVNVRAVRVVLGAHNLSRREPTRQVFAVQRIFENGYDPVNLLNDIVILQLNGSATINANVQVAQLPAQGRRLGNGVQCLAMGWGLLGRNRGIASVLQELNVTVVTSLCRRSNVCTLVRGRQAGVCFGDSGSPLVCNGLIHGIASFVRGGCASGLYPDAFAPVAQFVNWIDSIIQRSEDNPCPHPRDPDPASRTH

[3] = Compound was tested for inhibition of bovine pancreatic alpha-chymotrypsin; parameters: species or system Bos taurus
[4] = target: Hepatitis C virus serine protease, NS3/NS4A (Hepatitis C virus, UniProt A3EZI9+D2K2A8); test: (§1) Inhibition of hepatitis C virus (HCV) NS3 protease.; type: protein-complex assay, Hepacivirus hominis
[5] = target: Pancreatic elastase (Sus scrofa, UniProt P08419+P00772); test: Compound was tested for inhibition of porcine pancreatic elastase (PPE); type: protein assay
[6] = target: T2, Hepatitis C virus serine protease, NS3/NS4A (Hepatitis C virus, UniProt D2K2A8+A3EZI9); test: as §1; type: protein-complex assay, Hepacivirus hominis
[7] = target: T2, Hepatitis C virus serine protease, NS3/NS4A; test: Compound was tested for competitive inhibition of hepatitis C virus (HCV) serine protease; type: protein-complex assay, Hepacivirus hominis

Molecule | IC50 [1] [µM] | IC50 [2] [µM] | IC50 [3] [µM] | IC50 [4] [µM] | IC50 [5] [µM] | also measured
CC[C@H](C)[C@H](NC(=O)[C@@H]1CCCN1C(=O)[C@@H](NC(=O)[C@@H](NC(=O)[C@H](CC(=O)O)NC(=O)[C@H](CC(=O)O)NC(C)=O)[C@@H](C)CC)C(C)C)C(=O)O | – | – | – | 780 | – | –
CC[C@H](NC(=O)[C@@H]1CCCN1C(=O)[C@@H](NC(=O)[C@@H](NC(=O)[C@H](CC(=O)O)NC(=O)[C@H](CC(=O)O)NC(C)=O)[C@@H](C)CC)C(C)C)C(=O)O (Ac-DDIVP[Abu]-OH) | – | – | – | 250 | – | –
Ac-DDIVPL-OH | – | – | – | 800 | – | –
CCC[C@@H](NC(=O)[C@@H]1CCCN1C(=O)[C@@H](NC(=O)[C@@H](NC(=O)[C@@H](CC(=O)O)NC(=O)[C@H](CC(=O)O)NC(C)=O)[C@@H](C)CC)C(C)C)C(=O)NCc1ccccc1 | > 1000 | 120 | > 1000 | – | 206 | IC50 [6]: 52 µM
CCC[C@@H](NC(=O)[C@@H]1CCCN1C(=O)[C@@H](NC(=O)[C@@H](NC(=O)[C@@H](CC(=O)O)NC(=O)[C@H](CC(=O)O)NC(C)=O)[C@@H](C)CC)C(C)C)C(=O)OCc1ccccc1 | > 1000 | > 1000 | 29 | – | > 1000 | IC50 [6]: 9.3 µM
CCCC[C@H](NC(=O)[C@@H]1CCCN1C(=O)[C@@H](NC(=O)[C@@H](NC(=O)[C@H](CC(=O)O)NC(=O)[C@H](CC(=O)O)NC(C)=O)[C@@H](C)CC)C(C)C)C(=O)O (Ac-DDIVP[Nle]-OH) | – | – | – | 500 | – | –
Ac-DDIVPA-OH | – | – | – | 750 | – | –
CC[C@@H](C)[C@H](NC(=O)[C@@H]1CCCN1C(=O)[C@@H](NC(=O)[C@@H](NC(=O)[C@H](CC(=O)O)NC(=O)[C@H](CC(=O)O)NC(C)=O)[C@@H](C)CC)C(C)C)C(=O)O | – | – | – | 190 | – | –
CCC[C@@H](NC(=O)[C@@H]1CCCN1C(=O)[C@@H](NC(=O)[C@@H](NC(=O)[C@@H](CC(=O)O)NC(=O)[C@H](CC(=O)O)NC(C)=O)[C@@H](C)CC)C(C)C)C(=O)OC | – | – | – | – | – | IC50 [6]: 17 µM
CCC[C@@H](NC(=O)[C@@H]1CCCN1C(=O)[C@@H](NC(=O)[C@@H](NC(=O)[C@@H](CC(=O)O)NC(=O)[C@H](CC(=O)O)NC(C)=O)[C@@H](C)CC)C(C)C)C(=O)NC | – | – | – | – | – | IC50 [6]: 160 µM
CC[C@H](C)[C@H](NC(=O)[C@@H](CC(=O)O)NC(=O)[C@H](CC(=O)O)NC(C)=O)C(=O)N[C@H](C(=O)N1CCC[C@@H]1C(=O)N[C@@H](CS)C(=O)O)C(C)C | – | – | – | – | – | Ki [7]: 0.6 µM
CCC[C@H](CO)NC(=O)[C@@H]1CCCN1C(=O)[C@@H](NC(=O)[C@@H](NC(=O)[C@@H](CC(=O)O)NC(=O)[C@H](CC(=O)O)NC(C)=O)[C@@H](C)CC)C(C)C | – | – | – | 280 | – | –
CCC[C@@H](NC(=O)[C@@H]1CCCN1C(=O)[C@@H](NC(=O)[C@@H](NC(=O)[C@@H](CC(=O)O)NC(=O)[C@H](CC(=O)O)NC(C)=O)[C@@H](C)CC)C(C)C)C(N)=O | – | – | – | – | – | IC50 [6]: > 1000 µM

The next lines start with results.

IC50 [1] [µM] | IC50 [2] [µM] | IC50 [3] [µM] | IC50 [4] [µM] | IC50 [5] [µM] | Molecule | also measured
9.5 | 6.7 | > 900 | 1.1 | 2.2 | CCC[C@@H](C=O)NC(=O)[C@@H]1CCCN1C(=O)[C@@H](NC(=O)[C@@H](NC(=O)[C@@H](CC(=O)O)NC(=O)[C@H](CC(=O)O)NC(C)=O)[C@@H](C)CC)C(C)C | –
– | – | – | 79 | – | CCC[C@H](NC(=O)[C@@H]1CCCN1C(=O)[C@@H](NC(=O)[C@@H](NC(=O)[C@H](CC(=O)O)NC(=O)[C@H](CC(=O)O)NC(C)=O)[C@@H](C)CC)C(C)C)C(=O)C(F)(F)C(F)(F)F | –
– | – | – | 150 | – | CCC[C@H](NC(=O)[C@@H]1CCCN1C(=O)[C@@H](NC(=O)[C@@H](NC(=O)[C@H](CC(=O)O)NC(=O)[C@H](CC(=O)O)NC(C)=O)[C@@H](C)CC)C(C)C)C(=O)O (Ac-DDIVP[Nva]-OH) | –
> 900 | < 0.06 | 4.5 | 22 | 0.19 | CCC[C@H](NC(=O)[C@@H]1CCCN1C(=O)[C@@H](NC(=O)[C@@H](NC(=O)[C@@H](CC(=O)O)NC(=O)[C@H](CC(=O)O)NC(C)=O)[C@@H](C)CC)C(C)C)C(=O)C(F)(F)F (Ac-D[dD]IVP[Nva]-CF3) | –
> 1000 | > 1000 | > 1000 | 17 | > 1000 | CCC[C@H](NC(=O)[C@@H]1CCCN1C(=O)[C@@H](NC(=O)[C@@H](NC(=O)[C@@H](CC(=O)O)NC(=O)[C@H](CC(=O)O)NC(C)=O)[C@@H](C)CC)C(C)C)C(=O)O (Ac-D[dD]IVP[Nva]-OH) | –
– | – | – | 160 | – | CCC[C@H](NC(=O)[C@@H]1CCCN1C(=O)[C@@H](NC(=O)[C@@H](NC(=O)[C@H](CC(=O)O)NC(=O)[C@H](CC(=O)O)NC(C)=O)[C@@H](C)CC)C(C)C)C(=O)C(F)(F)F (Ac-DDIVP[Nva]-CF3) | –
– | – | – | 28 | – | CC[C@H](C)[C@H](NC(=O)[C@H](CC(=O)O)NC(=O)[C@H](CC(=O)O)NC(C)=O)C(=O)N[C@H](C(=O)N1CCC[C@H]1C(=O)N[C@@H](CS)C(=O)O)C(C)C | –
172 | 0.1 | 30 | 0.64 | < 0.06 | CCC[C@H](NC(=O)[C@@H]1CCCN1C(=O)[C@@H](NC(=O)[C@@H](NC(=O)[C@@H](CC(=O)O)NC(=O)[C@H](CC(=O)O)NC(C)=O)[C@@H](C)CC)C(C)C)C(=O)C(=O)NCc1ccccc1 | –
100 | 0.03 | 10 | 2 | < 0.06 | CCC[C@H](NC(=O)[C@@H]1CCCN1C(=O)[C@@H](NC(=O)[C@@H](NC(=O)[C@H](CC(=O)O)NC(=O)[C@H](CC(=O)O)NC(C)=O)[C@@H](C)CC)C(C)C)C(=O)C(=O)NCc1ccccc1 | –
– | – | – | 10 | – | CCC[C@@H](C=O)NC(=O)[C@@H]1CCCN1C(=O)[C@@H](NC(=O)[C@@H](NC(=O)[C@H](CC(=O)O)NC(=O)[C@H](CC(=O)O)NC(C)=O)[C@@H](C)CC)C(C)C | –
416 | 0.06 | 18 | 12 | < 0.06 | CCC[C@H](NC(=O)[C@@H]1CCCN1C(=O)[C@@H](NC(=O)[C@@H](NC(=O)[C@@H](CC(=O)O)NC(=O)[C@H](CC(=O)O)NC(C)=O)[C@@H](C)CC)C(C)C)C(=O)C(F)(F)C(F)(F)F | –
